{"source": "paper PMC10033279", "about": "(The Journal of Biological Chemistry, 2023)", "key": {"[1]": {"target": "T1, NADH:quinone oxidoreductase (NQO), PA1024 (Pseudomonas aeruginosa, UniProt Q9I4V0)", "T1 construct": "full-length gene PA1024 in pET20b(+), expressed in E. coli Rosetta(DE3)pLysS, purified; EC 1.6.5.9", "experiment": "anaerobic flavin reduction, absorption spectra", "format": "biochemical", "details": "500 μM NADPH, pH 7, 25 °C, poor substrate"}, "[2]": {"target": "T1, NADH:quinone oxidoreductase (NQO), PA1024", "experiment": "UV-visible absorption, FMN extraction by heat denaturation", "format": "binding", "details": "10 mM Tris-Cl, 200 mM NaCl, 10% glycerol, pH 8.0, 25 °C; stoichiometry of co-purified FMN"}, "[3]": {"target": "NADH:quinone oxidoreductase (NQO), PA1024 (Pseudomonas aeruginosa, UniProt Q9I4V0, Q80G)", "sequence (Q9I4V0 whole entry Q80G)": "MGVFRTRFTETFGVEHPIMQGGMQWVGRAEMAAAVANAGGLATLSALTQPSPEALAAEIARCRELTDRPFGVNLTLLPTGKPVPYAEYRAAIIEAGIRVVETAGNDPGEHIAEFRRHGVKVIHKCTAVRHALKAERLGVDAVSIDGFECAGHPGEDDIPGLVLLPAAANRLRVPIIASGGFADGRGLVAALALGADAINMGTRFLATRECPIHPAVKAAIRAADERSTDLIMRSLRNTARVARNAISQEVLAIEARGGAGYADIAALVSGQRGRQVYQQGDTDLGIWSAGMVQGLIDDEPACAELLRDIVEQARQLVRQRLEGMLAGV", "details": "read-out: KBQ; varied NADH; 20 mM KPi, 200 mM NaCl, pH 7.0, 25 °C"}, "[4]": {"target": "NADH:quinone oxidoreductase (NQO), PA1024 (Pseudomonas aeruginosa, UniProt Q9I4V0, Q80E)", "sequence (Q9I4V0 whole entry Q80E)": "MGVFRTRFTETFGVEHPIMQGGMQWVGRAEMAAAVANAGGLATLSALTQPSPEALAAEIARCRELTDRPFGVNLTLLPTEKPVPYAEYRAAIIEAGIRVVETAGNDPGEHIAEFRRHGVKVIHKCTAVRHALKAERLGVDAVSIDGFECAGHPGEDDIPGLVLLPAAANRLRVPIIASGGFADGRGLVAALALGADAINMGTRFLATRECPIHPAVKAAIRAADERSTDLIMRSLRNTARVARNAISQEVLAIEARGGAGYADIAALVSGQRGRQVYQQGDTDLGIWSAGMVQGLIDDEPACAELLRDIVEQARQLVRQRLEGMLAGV", "details": "read-out: KBQ; varied NADH; 20 mM KPi, 200 mM NaCl, pH 7.0, 25 °C"}, "[5]": {"target": "T1, NADH:quinone oxidoreductase (NQO), PA1024", "experiment": "steady-state NADH oxidation at […] nm, ping-pong global fit", "format": "biochemical", "details": "varied NADH; 20 mM KPi, 200 mM NaCl, pH 7.0, 25 °C; read-out: KBQ"}, "[6]": {"target": "T1, NADH:quinone oxidoreductase (NQO), PA1024", "experiment": "steady-state NADH oxidation at […] nm, Michaelis-Menten fit", "format": "biochemical", "details": "100 μM NADH fixed (not saturating; apparent; unreliable); 20 mM KPi, 200 mM NaCl, pH 7.0, 25 °C"}, "[7]": {"target": "T1, NADH:quinone oxidoreductase (NQO), PA1024", "experiment": "anaerobic stopped-flow flavin reduction at […] nm", "format": "biochemical", "details": "20 mM KPi, 200 mM NaCl, pH 7.0, 25 °C, unreliable (upper-bound estimate, saturated at lowest NADH)"}}}
{"smiles": "NC(=O)C1=CN([C@@H]2O[C@H](COP(=O)(O)OP(=O)(O)OC[C@H]3O[C@@H](n4cnc5c(N)ncnc54)[C@H](OP(=O)(O)O)[C@@H]3O)[C@@H](O)[C@H]2O)C=CC1", "note": "[NADPH]", "values": [{"measurement": "% flavin reduction over 10 min at 500 μM", "setting": "[1]", "value": "~ 10%"}]}
{"smiles": "Cc1cc2nc3c(=O)[nH]c(=O)nc-3n(C[C@H](O)[C@H](O)[C@H](O)COP(=O)(O)O)c2cc1C", "note": "[FMN]", "values": [{"measurement": "FMN/Protein", "setting": "[2]", "value": 0.40}]}
{"smiles": "O=C1C=CC(=O)C=C1", "note": "[1,4-benzoquinone]", "values": [{"measurement": "Km", "setting": "[3]", "value": "20 ± 1", "unit": "µM"}, {"measurement": "Km", "setting": "[4]", "value": "15 ± 1", "unit": "µM"}, {"measurement": "Km", "setting": "[5]", "value": "30 ± 1", "unit": "µM"}]}
{"smiles": "CC1=CC(=O)C=CC1=O", "note": "[2-methyl-1,4-benzoquinone]", "values": [{"measurement": "^app(Km)", "setting": "[6]", "value": "96 ± 1", "unit": "µM"}]}
{"smiles": "O=C1C=CC(=O)c2c(O)cccc21", "note": "[5-hydroxy-1,4-naphthoquinone]", "values": [{"measurement": "^app(Km)", "setting": "[6]", "value": "21 ± 1", "unit": "µM"}]}
{"smiles": "NC(=O)C1=CN([C@@H]2O[C@H](COP(=O)(O)OP(=O)(O)OC[C@H]3O[C@@H](n4cnc5c(N)ncnc54)[C@H](O)[C@@H]3O)[C@@H](O)[C@H]2O)C=CC1", "note": "[NADH]", "values": [{"measurement": "Kd (μM)", "setting": "[7]", "value": "<= ≤ 3 μM"}]}
{"smiles": "COC1=C(OC)C(=O)C(C)=CC1=O", "note": "[2,3-dimethoxy-5-methyl-1,4-benzoquinone]", "values": [{"measurement": "^app(Km)", "setting": "[6]", "value": "60 ± 1", "unit": "µM"}]}
